Measured values published in patent publication US10704076B2, “Multi-tiered high through-put screen for compounds effective against bacterial biofilm and compounds effective for inhibiting and eradicating bacterial biofilm” (University of Cincinnati, priority 2013, dated 2020).

What was measured:
P. aeruginosa biofilm [1] = assay: HTS live biofilm assay (resazurin metabolic activity); format: cell-based; conditions: Pseudomonas aeruginosa, 10 point dose-response 0.1-50 μM
From the text: (§1) Each HTS tier consisted of: (i) primary screening, (ii) confirmation screening and (iii) dose-response curve screening. Each tier of HTS included three distinct biological process assays. The first assay was an optical density measurement of bacteria growth in the presence of each compound reported as a total bacteria growth. In the second assay, resazurin solution was used as an indicator of metabolic activity to measure the live bacteria in the biofilms, reported as live biofilm. The final assay was crystal violet staining, which indicated the amount of biofilm formation and the effect of each compound on this process, reported as total biofilm formation.
(§2) Briefly, stationary phase bacteria grown in L-broth were diluted 1:200 into fresh L-broth and 50 μM of each test compound. After 20-24 hours, the optical density (OD560) of each suspension was measured using Zeiss Plate::Vision with a 560 BP filter (560 nm, 2.5% light intensity, 1 mm focus to bottom of plate, and exposure time of 100 ms). To measure bacterial viability in the biofilm, 50 μl of a 5 mg/ml resazurin solution in L-broth was added to each well after washing 3 times with 50 μl of PBS. The plates were then incubated at 37° C. for 30 or 180 min for A. baumannii and P. aeruginosa biofilms, respectively. Fluorescence was measured using Zeiss Plate::Vision at excitation and emission wavelengths of 535 and 580 nm, 100 ms exposure time, 2.5% intensity and a 2 mm focus to the bottom of the biofilms. To assess biofilm formation, plates were washed 3 times with PBS and then 50 μl of 0.01% of crystal violet was added to each well to assess bacterial biofilm formation as described in a similar borosilicate tube assay by O'Toole and Kolter. After incubation at room temperature for 30 min and removal of the crystal violet solution by washing with PBS, 95% ethanol was added to solubilize the crystal violet followed by incubation for 20 min at room temperature. Finally, the optical density of each plate was determined using measured by Zeiss Plate::Vision using the same settings used to measure total bacterial growth. These 3 steps were used in each of the three tiers for the HTS process: (i) single point primary screening at 10 μM, (ii) triplicate confirmation of hits from (i) at 10 μM and (iii) determination of AC50 values in 10 point dose-response at a concentration range of 0.1-50 μM) in hits from (ii). The AC50 represents the concentration of compound that inhibits 50% of bacterial growth, bacterial viability, or biofilm formation. Genedata Screener® Assay Analyzer Software (Ver. 9.0.0 Standard) was used to analyze data from all assay tiers. Compounds with an AC50 of less than 20 μM in one of the biological assays from the dose response screen were subject to additional investigation.

A. baumannii biofilm [2] = assay: HTS total biofilm formation assay (crystal violet staining); format: cell-based, Acinetobacter baumannii; conditions: Acinetobacter baumannii, 10 point dose-response 0.1-50 μM
From the text: as §1, §2

P. aeruginosa biofilm [3] = assay: CLSM, co-culture of bacteria with compound (inhibition of biofilm formation); format: cell-based, Pseudomonas aeruginosa
Experimental: (§3) Broad spectrum agents (effective against all three bacterial species) and single agent compounds identified as HTS hits were investigated with CLSM confirmation of inhibition of biofilm formation (culture of bacteria with compounds) or killing of bacteria residing within an established biofilm (compound addition after culturing biofilm). To evaluate inhibition of P. aeruginosa biofilms, bacteria were sub-cultured into 10% L-broth and grown at 37° C. until the OD600 reached 0.25. The bacteria were further diluted 1:100 into a modified 0.5×M63 minimum media (50 mM KH2PO4, 7.5 mM (NH4)2SO4, 9 μM FeSO4, 0.5% casamino acids, 0.2% glucose, and 1 mM MgSO4). A. baumannii biofilms were also grown in 10% L-broth until the OD600 reached 0.05 but diluted 1:10 into 5% L-broth media. S. epidermidis biofilm cultures were grown. Briefly, the bacteria were grown in TSB until the OD600 reached 0.75, and a 1:100 dilution of the bacteria was sub-cultured into phosphate buffered saline (PBS). All of the biofilm bacterial cultures were grown in 96-well plate chambers (MatTek Corp., Ashland, Mass.) in the presence of 10 μM of each compound or DMSO as a control and incubated for 18 hrs at 37° C. To investigate the ability of compounds to kill bacteria within pre-existing biofilms, biofilms were grown under the same conditions, but without test compound. These biofilms were washed once with PBS and incubated an additional 24 hr at 37° C. in PBS containing 300 μM of each compound. All biofilm cultures were then washed twice with 100 μL of PBS and stained using the LIVE/DEAD® BacLight™ Bacterial Viability Kit (Invitrogen). Finally, biofilm images were obtained using a Zeiss LSM510 META Confocal Microscope (Carl Zeiss, Inc., Germany). A 488 nm laser was used in conjunction with a Plan-Apochromat 100×/1.4 Oil DIC objective. Z-stacks were 8 bit and measured 127.3 μm×127.3 μm×16.0 μm in size. The filters used were 505-530 and 620-680 IR, as the excitation and emission wavelengths for red fluorescence are 490 nm and 635 nm, respectively, and 480 nm and 500 nm for green fluorescence. Three dimensional images were generated using the “Projection” ability on LSM Image Browser software (v.1.4.0.121) or Zeiss LSM image browser software version 3.5 (Carl Zeiss, Inc., Germany), and Live/Dead calculations were conducted based upon these images using MacBiophotonics ImageJ following the guidelines in the cell counting guide by C. Labno {Rasband, 1997-2011 #25; Labno, #2} at the University of Chicago Integrated Light Microscopy Core. The thickness of the biofilm was calculated using Comstat software. A hit was defined as a >50% dead to live ratio.
(§4) The CLSM experiment was performed in one or two or all bacteria used in this study depending on its activity. For the validation of HTS hits, 10 μM of compound was added to each bacterial suspension and the resulting biofilm stained with LIVE/DEAD® BacLight™ Bacterial Viability Kit. The images were analyzed to determine the live and dead ratios of biofilm bacteria, the thickness of biofilms, and structural attributes of biofilms.

A. baumannii = assay: HTS total bacterial growth assay (optical density OD560); format: cell-based, Acinetobacter baumannii; conditions: Acinetobacter baumannii, 10 point dose-response 0.1-50 μM, NS* = no sigmoid curve observed, read-out: Total Bacteria Growth AC50
From the text: as §1, §2

P. aeruginosa biofilm [4] = assay: HTS total biofilm formation assay (crystal violet staining); format: cell-based, Pseudomonas aeruginosa; conditions: Pseudomonas aeruginosa, 10 point dose-response 0.1-50 μM
From the text: as §1, §2

A. baumannii biofilm [5] = assay: HTS live biofilm assay (resazurin metabolic activity); format: cell-based, Acinetobacter baumannii; conditions: Acinetobacter baumannii, 10 point dose-response 0.1-50 μM
From the text: as §1, §2

A. baumannii biofilm [6] = assay: CLSM, co-culture of bacteria with compound (inhibition of biofilm formation); format: cell-based, Acinetobacter baumannii
Experimental: as §3, §4

P. aeruginosa = assay: HTS total bacterial growth assay (optical density OD560); format: cell-based, Pseudomonas aeruginosa; conditions: Pseudomonas aeruginosa, 10 point dose-response 0.1-50 μM, read-out: Total Bacteria Growth AC50
From the text: as §1, §2

[7] = tested on: P. aeruginosa established biofilm; assay: CLSM, effect of compound on the pre-existing biofilm; format: cell-based, Pseudomonas aeruginosa; conditions: 300 μM, 24 hr
Experimental: as §3, §4

[8] = tested on: S. epidermidis established biofilm; assay: Killing of established Se biofilm by compounds Se-1 through Se-16; format: cell-based, Staphylococcus epidermidis; conditions: 300 μM compound, X / O
From the text: This Example illustrates efficacy of compounds Se-1 through Se-16 at inhibiting S. epidermidis biofilm formation and/or killing established S. epidermidis biofilms. Detailed methods, materials and data are set forth in Shea, Chloe, U of Cincinnati Masters Thesis “Effectiveness of Novel Compounds at Inhibiting and Killing P. aeruginosa and S. epidermidis Biofilms” published on Mar. 17, 2013, the entire disclosure of which is incorporated herein by this reference. FIG. 8 illustrates effective inhibition of Se biofilm formation. For these experiments, Se was co-cultured with 10 μM of compounds Se-1 through Se-16 (see Table 5 for compound names and Table 6 for compound structures). A-H represents the top view of the Se biofilm, while the sagittal view is shown in I-P. The control Se biofilm is shown in A/I. Se biofilm formation in the presence of 10 μM of compound Se-3, Se-4, Se-13, Se-14, Se-15 or Se-16 as shown in B/J, C/K, D/L, E/M, F/N, G/O, and H/P, respectively. FIG. 9 illustrates effective killing of established Se biofilm. For this experiment, Se biofilms were treated with 300 μM of compounds Se-1 through Se-16. A-H represents the top view of the Se biofilm, while the sagittal view is shown in I-P. The control Se biofilm is shown in A/I. Effective killing was defined as >50% dead bacteria.

[9] = CLSM, 10 μM compound, 18 hrs, Y / —

Q: `NC1=CC(=O)c2nonc2C1=O` [Compound 2, 5-amino-2,1,3-Benzoxadiazole-4,7-dione] was tested. Which AC50 (P. aeruginosa biofilm [1]) did it give?
A: 15.2 µM

Q: And the AC50 (A. baumannii biofilm [2])?
A: 3.15 µM

Q: What about the “killing of residential bacteria, co-culture (CLSM, in words)” value (P. aeruginosa biofilm [3]; 10 μM) of the same molecule?
A: effectively killed the residential bacteria

Q: What about the “Co-culture of bacteria with compound: Killing” value (P. aeruginosa biofilm [3]; [9]) of the same molecule?
A: Y (A hit was defined as a >50% dead to live ratio)

Q: And the AC50 (A. baumannii)?
A: 2210 nM

Q: And the AC50 (P. aeruginosa biofilm [4])?
A: 1430 nM

Q: And the AC50 (A. baumannii biofilm [5])?
A: 3.21 µM

Q: What about the “killing of residential bacteria, co-culture (CLSM, in words)” value (A. baumannii biofilm [6]; 10 μM) of the same molecule?
A: effectively killed the residential bacteria

Q: And the “Co-culture of bacteria with compound: Killing” value (A. baumannii biofilm [6]; [9])?
A: Y (A hit was defined as a >50% dead to live ratio)

Q: And the AC50 (P. aeruginosa)?
A: 9.09 µM

Q: With `CC(C)(C)n1cc(C(=O)O)c(=O)c2cc(F)c(N3CCN(C(=S)S)CC3)nc21` [Compound 9, 1-(1,1-dimethylethyl)-1,4-dihydro-6-fluoro-4-oxo-7-(4-dithiocarboxypiperazin-1-yl)-1,8-Naphthyridinyl-3-carboxylic acid] as the molecule, how does the “killing of established P. aeruginosa biofilm (CLSM, in words)” value [7] read?
A: failed to kill bacteria within a biofilm

Q: What about the AC50 (P. aeruginosa biofilm [1]) of the same molecule?
A: 8.14 µM

Q: What about the “Co-culture of bacteria with compound: Inhibit biofilm formation” value (P. aeruginosa biofilm [3]; CLSM, 10 μM compound, 18 hrs) of the same molecule?
A: failed to inhibit biofilm formation

Q: What about the AC50 (P. aeruginosa biofilm [4]) of the same molecule?
A: 3600 nM

Q: And the AC50 (P. aeruginosa)?
A: 27.7 µM

Q: How did the Killing [8] turn out when `CN(C)c1ccc(CN2CCN(C(=O)Nc3ccc(C(F)(F)F)cc3)CC2)cc1` [Se3, 4-{[4-(dimethylamino]phenyl]methyl}-N-[4-(trifluoromethyl]phenyl]piperazine-1-carboxamide] was run?
A: X (Effective killing was defined as >50% dead bacteria)

Q: For `CCCCCCCCCCCCOCC[N+](CCO)(CCO)Cc1ccccc1` [Se4, 2-dodecoxyethyl-bis(2-hydroxyethyl)-(phenylmethyl)ammonium], which Killing [8] is on record?
A: X (Effective killing was defined as >50% dead bacteria)

Q: How did the Killing [8] turn out when `O=C(Nc1ccc(Cl)cc1)Nc1nnc(C(F)(F)F)s1` [Se10, 1-(4-chlorophenyl)-3-[5-(trifluoromethyl)-1,3,4-thiadiazol-2-yl]urea] was run?
A: X (Effective killing was defined as >50% dead bacteria)

Q: `N#C/C(=N\Nc1ccc(OC(F)(F)F)cc1)C(=O)c1cccs1` [Se12, (2E]-3-keto-3-(2-thienyl]-2-[[4-(trifluoromethoxy)phenyl]hydrazono]propionitrile] was tested. Which Killing [8] did it give?
A: X (Effective killing was defined as >50% dead bacteria)

Q: Which Killing [8] does the source give for `CN(C)c1ccc(C(=C2C=CC(=[N+](C)C)C=C2)c2ccc(N(C)C)cc2)cc1` [Se13, [4-[bis(4-dimethylaminophenyl]methylene]-1-cyclohexa-2,5-dienylidene]-dimethyl-ammonium] here?
A: X (Effective killing was defined as >50% dead bacteria)

Q: With `CCc1c(C)[nH]c(CC(=O)O)c1C` [Se14, 2-(4-ethyl-3,5-dimethyl-1H-pyrrol-2-yl]acetic acid] as the molecule, how does the Killing [8] read?
A: X (Effective killing was defined as >50% dead bacteria)

Q: `O=C(Nc1cccc(F)c1)c1ccccc1NS(=O)(=O)c1ccc(Br)cc1` [Se15, 2-[(4-bromophenyl)sulfonylamino]-N-(3-fluorophenyl)benzamide] was tested. Which Killing [8] did it give?
A: X (Effective killing was defined as >50% dead bacteria)
